Laboratory results reported in patent publication US11136320B2, “Fused ring derivative used as FGFR4 inhibitor” (JACOBIO PHARMACEUTICALS CO., LTD., priority 2019, dated 2021).

Key:
[1] = PK/PD of NOD-SCID mouse (drug concentration in blood and in tumors); format: in vivo; details: NOD-SCID, mouse, po, 50 mg/kg, p.o. (50 mg/kg); for AUC(0-t): read-out: AUC0-6 h; for concentration at 4 h / concentration at 6 h: tumor
Procedure: This experiment conducted when the pharmacological experiment in vivo was performed by gavage administration, wherein, the blood samples and tumor samples were taken at different time points to detect drug concentration in blood and drug concentrations in tumors.
(1) Mode of administration: gavage administration;
(2) Dosage: 50 mg/kg in the gavage administration;
Three mice were sampled at each sampling point;
(4) Blood sample collection: 200 μL of orbital blood was collected at sampling time point for each blood sample. After anticoagulation with heparin, the blood was centrifuged at 5500 rpm for 10 mins. 60 μL of the supernatant was taken and put it into the refrigerator at −80° C. for waiting for testing.
Tumour sample collection: 200-300 mg of each tumor tissue was taken. The tumor weight was marked, quickly freezed in liquid nitrogen and placed into a refrigerator at −80° C. for waiting for testing.
Tumour sample processing: pure water was added into the tumor sample according to a ratio of […] between the weight of the tumor sample and the volume of pure water and then it was homogenized. The homogenate was stored at −90° C. to −60° C. until the sample was analyzed. After 5 μL of acetonitrile/water (v/v=1:1) was added into 50 μL of tumor sample homogenate, 200 μL of acetonitrile (containing Dexamethasone 100 ng/ml as internal standard, or containing Verapamil 2 ng/ml as internal standard) was added. After protein precipitation, the resulting mixture was vortexed for 2 mins at 4° C. with 4600 g, and then centrifuged for 15 mins to obtain the supernatant. 100 μL of the supernatant was taken and added into 200 μL of deionized water. 5500 LC/MS/MS analyser was used for sample injection and analysis, after vortexing for homogeneity. The conditions for chromatographic separation and mass spectrometric analysis were as follows: […]

[2] = tested on: Hep3B; experiment: Pharmacodynamic in vivo, Hep3B model tumor growth inhibition; parameters: species or system NOD-SCID mice; details: 60 mg/kg QD, gavage
Source text: The Hep3B cell line was purchased from ATCC; MEM cell culture medium, fetal bovine serum, and trypsin were purchased from Gibco; cell culture flasks were purchased from Greiner; and disposable Cell Counting Plate and taittinger Blue Solution Purchased from Bio-Rad. The disposable sterile syringe was purchased from Changzhou Jinlong Medical Plastic Instrument Co., Ltd, eye surgical scissors and eye surgical forceps were purchased from Shanghai Medical Instrument (Group) Co., Ltd. Surgical Instrument Factory, and 6-8 week old female NOD-SCID mice were purchased from Vitalivar.
a. One strain of Hep3B cells was taken out from the cell bank and MEM medium (MEM+10% FBS+1% PS) was used to recover the cells. The resuscitated cells were placed in a cell culture flask (the wall the flask was marked with the cell type, date, cultivator's name), and the cell culture flask was placed in a CO2 incubator (the temperature of the incubator was 37° C. and the CO2 concentration of the incubator was 5%);
b. When the cells covered about 90% of the bottom of the culture flask, passage was conducted. the cells were continued to cultivate in a CO2 incubator after passage. The above process was repeated until the number of the cell satisfied the requirements of pharmacodynamic in vivo;
c. The cultured cells were collected and counted using a BIO-Rad TC20 cell counter. According to the counting results, the cultured cells were resuspended with PBS and matrix gel (1:1) to obtain a cell suspension (density 5×10^7/ml), and the cell suspension was placed in an ice box for later use.
a. The cells were mixed well before seeding, and 0.5 ml of cell suspension was taken with a 1 ml syringe and bubbles in the cell suspension were removed. The syringe with the cell suspension was place on an ice pack for later use.
b. The NOD-SCID mice were set with the left hand, and the skin on the right back of the mice was disinfected with 75% alcohol. The inoculation was beginning after 30 seconds.
c. During inoculation, 1 mL syringe was on the right hand, and the cell suspension of Hep3B was inoculated subcutaneously into the right shoulder of the right back of the mouse at 0.1 mL/mouse. At inoculation interval, the syringe was placed on an ice pack and the mice were inoculated sequentially.
d. According to the tumor growth, the tumor was measured and the tumor size was calculated on the 12-15 days after inoculation.
Tumor volume calculation: tumor volume (mm^3)=length (mm)×width (mm)×width (mm)/2
e. When the tumors grew to an average volume of 100-150 mm^3, the mice were randomly divided into two groups according to tumor size and the weight of the mouse. […]
f. […] Tumors were measured and the mice were weighed twice a week after administration. […]

[3] = tested on: Hepatoma cell Hep3B (high expression of FGFR4 and FGF19); experiment: Hepatoma cell proliferation inhibition experiment (MTS method); format: cell-based; details: Homo sapiens, Hep3B; 120 h incubation; read-out: Hep3B(IC50 μM)
Source text: In this experiment, the MTS method was used to test the inhibitory effect of the compounds on the proliferation of Hepatoma cell Hep3B (high expression of FGFR4 and FGF19), and the half inhibitory concentration IC50 of the compounds to Hep3B was obtained. The Hep3B cell line was purchased from ATCC, and the complete culture medium of the Hep3B cell line was MEM+10% FBS+1% PS. MEM cell culture medium, fetal bovine serum, and trypsin were purchased from Gibco, cell culture flasks were purchased from Greiner, and disposable Cell Counting Plate and Taittinger Blue Solution were purchased from Bio-Rad.
(1) 100 μl Hepatoma cell Hep3B suspension was seeded in a 96-well cell culture plate, and the density of each well was 2.0×10^4 cells/ml.
(3) A mixture of MTS (3-(4,5-dimethylthiazol-2-yl)-5-(3-carboxymethoxyphenyl)-2-(4-sulfophenyl)-2H-tetrazolium)/PMS (phenazine methosulfate) was added into each well for coloration, and MTS/PMS in the mixture was at a ratio of 20:1 (ml:ml). 30 μl of the mixture was added into each well of the culture plate above mentioned in step (2), then the culture plate was incubated for 3 h in the incubator.
(5) The inhibition rate was calculated by the […];
(6) According to the inhibition rate of the different concentrations, the IC50 values of the compounds were obtained by curve fitting.

[4] = PK analysis of rats; format: in vivo; details: rat, plasma, po, SD rats, p.o. (10 mg/kg)
Procedure: In the present invention, the pharmacokinetics experiment of the compounds in rats was performed using the SD rats (Vitolihua).
(1) Mode of administration: single gavage administration and intravenous injection administration.
(2) Dosage: 10 mg/kg in the gavage administration, 3 mg/kg in the intravenous injection administration.
Gavage administration: before administration, 15 min, 30 min, 1 h, 2 h, 4 h, 6 h, 8 h, 24 h; […]
(4) Sample processing: 200 μL of orbital blood was collected at each sampling time point. After anticoagulation with heparin, the blood was centrifuged at 5500 rpm for 10 min, and 60 μL of the supernatant was taken and put into the refrigerator at −80° C. for waiting for testing.
Samples obtained after administration of Compound 1 were tested using 4000 LC-MS/MS analyzer, wherein, the chromatographic separation conditions for testing were:
Samples obtained after administration of Compound 7 were tested using 4000 LC-MS/MS analyzer, wherein, the chromatographic separation conditions for testing were:
Samples obtained after administration of Compound 16 were tested using 4000 LC-MS/MS analyzer, wherein, the chromatographic separation conditions for testing were: […]

COCCNc1cc(NC(=O)N2CCCc3cc(CN4CCN(C)CC4=O)c(C=O)nc32)ncc1C#N [Reference compound, roblitinib, reference compound]
AUC(0-inf) ([1]; plasma, Hep3B model): 29100 ng·h/mL
Cmax ([1]; plasma, Hep3B model): 6200 ng/mL
Tmax ([1]; plasma, Hep3B model): 1 h
half-life ([1]; plasma, Hep3B model): 3.13 h
AUC(0-t) ([1]; plasma, Hep3B model): 20200 ng·h/mL
Cmax ([1]; plasma, SNU878 model): 5430 ng/mL
Tmax ([1]; plasma, SNU878 model): 4 h
AUC(0-t) ([1]; plasma, SNU878 model): 20400 ng·h/mL
concentration at 4 h ([1]; Hep3B model): 64.4 ng/g
concentration at 6 h ([1]; Hep3B model): 44.1 ng/g
concentration at 4 h ([1]; SNU878 model): 3560 ng/g
concentration at 6 h ([1]; SNU878 model): 1030 ng/g
TGI % [2]: 97.7%
IC50 [3]: 0.024 µM
AUC(0-t) ([4]; read-out: Curve area AUC0-24 h): 1590 ng·h/mL
Cmax ([4]; read-out: Drug concentration in blood Cmax): 350 ng/mL
